Patent publication US20250296959A1, “B7-H3 TARGETING PEPTIDES AND CONSTRUCTS THEREOF” (Mariana Oncology Inc., priority 2024, published 2025)
Starred links: 1 amine or outer side, 2 acyl side, 3 side chain; linkers in the order of their positions; H or OH if unused. Positions of bridges follow the written chain, without caps; N, C: chain ends. Non-standard residues stand in square brackets, D forms with d. Residues, ends and D or L forms follow the SMILES beside them. Groups on a side chain read outwards from the residue. *: point of attachment. Ala(piperidin-4-yl) = O=C([C@H](CC1CCN([*:3])CC1)N[*:1])[*:2]; DOTA = O=C(O)CN1CCN(CC(=O)O)CCN(CC(=O)*)CCN(CC(=O)O)CC1; Trp(5-F) = N[C@@H](Cc1c[nH]c2ccc(F)cc12)C(=O)O; γGlu = O=C(O)[C@H](CCC(=O)[*:2])N[*:1]; 1Nal = N[C@@H](Cc1cccc2ccccc12)C(=O)O; Ala(4-THP) = N[C@@H](CC1CCOCC1)C(=O)O; Phe(2-Me) = Cc1ccccc1C[C@H](N)C(=O)O; Val(3-OH) = CC(C)(O)[C@H](N)C(=O)O; PEG4 = NCCOCCOCCOCCOCCC(=O)O; Tle = CC(C)(C)[C@H](N)C(=O)O; hLeu = CC(C)CC[C@H](N)C(=O)O

Biological target: T1, human 4lg B7-H3 (Homo sapiens, UniProt Q5ZPR3)
T1 sequence (Q5ZPR3 29-534): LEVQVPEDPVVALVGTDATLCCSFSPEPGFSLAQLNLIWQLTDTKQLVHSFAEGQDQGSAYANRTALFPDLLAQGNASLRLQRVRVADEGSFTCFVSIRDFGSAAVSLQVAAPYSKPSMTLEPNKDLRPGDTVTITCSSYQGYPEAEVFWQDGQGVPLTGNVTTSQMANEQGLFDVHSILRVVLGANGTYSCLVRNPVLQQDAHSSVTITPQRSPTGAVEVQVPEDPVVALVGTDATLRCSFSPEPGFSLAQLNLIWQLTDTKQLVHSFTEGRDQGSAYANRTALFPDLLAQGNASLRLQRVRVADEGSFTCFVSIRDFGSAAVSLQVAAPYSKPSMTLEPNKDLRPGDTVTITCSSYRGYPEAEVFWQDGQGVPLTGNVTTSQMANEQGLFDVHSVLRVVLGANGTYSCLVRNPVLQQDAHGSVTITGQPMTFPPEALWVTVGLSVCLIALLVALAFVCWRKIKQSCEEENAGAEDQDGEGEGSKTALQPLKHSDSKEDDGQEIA
Experiment: Affinity determination by surface plasmon resonance (SPR) to 4Ig B7-H3
Conditions: SPR KD—37° C., 4Ig B7-H3; 37° C. flow cell temperature

A Kd of under 1 nM was found for `CC(=O)N[C@@H](CCC(C)C)C(=O)N[C@@H](Cc1ccc(O)cc1)C(=O)N[C@H]1CSSC[C@@H](C(=O)N[C@@H](Cc2c[nH]c3ccc(F)cc23)C(=O)N[C@@H](Cc2ccccc2)C(=O)N[C@H](C(=O)N[C@H](CCCCNC(=O)CC[C@H](NC(=O)CN2CCN(CC(=O)O)CCN(CC(=O)O)CCN(CC(=O)O)CC2)C(=O)O)C(N)=O)C(C)(C)O)NC(=O)[C@H](Cc2ccc(O)cc2)NC(=O)[C@H](C(C)C)NC(=O)[C@H](CC(=O)O)NC(=O)[C@H](CC2CCOCC2)NC(=O)[C@H](CC2CCNCC2)NC(=O)CNC(=O)[C@H](C(C)(C)C)NC1=O` [compound 452, Ac-hLeu-Y-C-Tbg-G-PipAla-ThpA-D-V-Y-C-5FW-F-hydroxyVal-dLys(gE-DOTA)-CONH2] (Ac-[hLeu]YC[Tle]G[Ala(piperidin-4-yl)][Ala(4-THP)]DVYC[Trp(5-F)]F[Val(3-OH)][dK]([γGlu-DOTA])-NH2; disulfide 3-11) in this work.

A Kd of under 1 nM was found for `CC(=O)N[C@@H](CCC(C)C)C(=O)N[C@@H](Cc1ccc(O)cc1)C(=O)N[C@H]1CSSC[C@@H](C(=O)N[C@@H](Cc2cccc3ccccc23)C(=O)N[C@@H](Cc2ccccc2)C(=O)N[C@H](C(=O)N[C@H](C)C(=O)O)C(C)(C)O)NC(=O)[C@H](Cc2ccc(O)cc2)NC(=O)[C@H](C(C)C)NC(=O)[C@H](CC(=O)O)NC(=O)[C@H](CC2CCN(C(=O)CCOCCOCCOCCOCCNC(=O)CN3CCN(CC(=O)O)CCN(CC(=O)O)CCN(CC(=O)O)CC3)CC2)NC(=O)[C@H](CC2CCNCC2)NC(=O)CNC(=O)[C@H](C(C)(C)C)NC1=O` [compound 453, Ac-hLeu-Y-C-Tbg-G-PipAla-Pip(PEG4-DOTA)Ala-D-V-Y-C-1Nal-F-hydroxyVal-dAla-COOH] (Ac-[hLeu]YC[Tle]G[Ala(piperidin-4-yl)][Ala(piperidin-4-yl)]([PEG4-DOTA])DVYC[1Nal]F[Val(3-OH)][dA]-OH; disulfide 3-11) in this work.

A Kd of under 1 nM was found for `CC(=O)N[C@@H](CCC(C)C)C(=O)N[C@@H](Cc1ccc(O)cc1)C(=O)N[C@H]1CSSC[C@@H](C(=O)N[C@@H](Cc2cccc3ccccc23)C(=O)N[C@@H](Cc2ccccc2)C(=O)N[C@H](C(=O)N[C@H](CCC(=O)O)C(N)=O)C(C)(C)O)NC(=O)[C@H](Cc2ccc(O)cc2)NC(=O)[C@H](C(C)C)NC(=O)[C@H](CC(=O)O)NC(=O)[C@H](CC2CCN(C(=O)CCOCCOCCOCCOCCNC(=O)CN3CCN(CC(=O)O)CCN(CC(=O)O)CCN(CC(=O)O)CC3)CC2)NC(=O)[C@H](CC2CCNCC2)NC(=O)CNC(=O)[C@H](C(C)(C)C)NC1=O` [compound 454, Ac-hLeu-Y-C-Tbg-G-PipAla-Pip(PEG4-DOTA)Ala-D-V-Y-C-1Nal-F-hydroxyVal-dGlu-CONH2] (Ac-[hLeu]YC[Tle]G[Ala(piperidin-4-yl)][Ala(piperidin-4-yl)]([PEG4-DOTA])DVYC[1Nal]F[Val(3-OH)][dE]-NH2; disulfide 3-11) in this work.

A Kd of under 1 nM was found for `CC(=O)N[C@@H](CCC(C)C)C(=O)N[C@@H](Cc1ccc(O)cc1)C(=O)N[C@H]1CSSC[C@@H](C(=O)N[C@@H](Cc2c[nH]c3ccc(F)cc23)C(=O)N[C@@H](Cc2ccccc2C)C(=O)N[C@H](C(=O)N[C@H](CCCCNC(=O)CN2CCN(CC(=O)O)CCN(CC(=O)O)CCN(CC(=O)O)CC2)C(=O)O)C(C)(C)O)NC(=O)[C@H](Cc2ccc(O)cc2)NC(=O)[C@H](C(C)C)NC(=O)[C@H](CC(=O)O)NC(=O)[C@H](CC2CCOCC2)NC(=O)[C@H](CC2CCNCC2)NC(=O)CNC(=O)[C@H](C(C)(C)C)NC1=O` [compound 456, Ac-hLeu-Y-C-Tbg-G-PipAla-ThpA-D-V-Y-C-5FW-2MePhe-hydroxyVal-dLys(DOTA)-COOH] (Ac-[hLeu]YC[Tle]G[Ala(piperidin-4-yl)][Ala(4-THP)]DVYC[Trp(5-F)][Phe(2-Me)][Val(3-OH)][dK](DOTA)-OH; disulfide 3-11) in this work.
